{
  "source": "ChEMBL document CHEMBL5518193",
  "about": "“Discovery of N-alkyl-N-benzyl thiazoles as novel TRPC antagonists for the treatment of glioblastoma multiforme” (Eur J Med Chem, 2024)",
  "key": {"[1]": {"molecular_target": "T1, Short transient receptor potential channel 4 (Mus musculus, UniProt Q9QUQ5)", "T1 sequence (Q9QUQ5 whole entry)": "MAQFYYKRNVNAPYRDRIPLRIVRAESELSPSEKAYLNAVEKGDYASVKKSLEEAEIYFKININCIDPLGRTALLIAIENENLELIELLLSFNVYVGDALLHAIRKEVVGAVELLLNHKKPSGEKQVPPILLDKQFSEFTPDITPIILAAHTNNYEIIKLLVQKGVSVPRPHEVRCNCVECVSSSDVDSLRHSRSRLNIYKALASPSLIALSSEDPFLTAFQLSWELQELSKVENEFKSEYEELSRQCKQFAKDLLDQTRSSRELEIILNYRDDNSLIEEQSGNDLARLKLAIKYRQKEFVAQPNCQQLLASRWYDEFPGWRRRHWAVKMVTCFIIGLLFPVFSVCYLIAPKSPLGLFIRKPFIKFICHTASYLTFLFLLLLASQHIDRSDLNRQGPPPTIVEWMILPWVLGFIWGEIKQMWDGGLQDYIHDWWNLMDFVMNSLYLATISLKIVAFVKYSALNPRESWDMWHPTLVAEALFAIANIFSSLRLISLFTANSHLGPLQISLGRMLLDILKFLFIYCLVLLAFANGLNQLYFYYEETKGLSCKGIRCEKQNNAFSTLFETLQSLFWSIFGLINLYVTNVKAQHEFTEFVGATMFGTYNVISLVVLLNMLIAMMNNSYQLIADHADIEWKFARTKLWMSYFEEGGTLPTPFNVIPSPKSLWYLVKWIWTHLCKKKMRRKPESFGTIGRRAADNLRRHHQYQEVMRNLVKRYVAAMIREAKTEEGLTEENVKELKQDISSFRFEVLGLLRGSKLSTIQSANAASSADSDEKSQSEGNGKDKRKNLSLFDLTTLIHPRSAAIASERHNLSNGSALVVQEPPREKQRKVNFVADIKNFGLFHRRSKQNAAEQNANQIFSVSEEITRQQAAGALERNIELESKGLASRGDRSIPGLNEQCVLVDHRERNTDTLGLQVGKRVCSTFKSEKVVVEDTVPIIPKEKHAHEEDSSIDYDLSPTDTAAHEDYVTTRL", "test": "Antagonist activity at mouse TRPC4 stably expressed in HEK293 cells inhibition of calcium influx by calcium fluorescence assay", "assay_type": "cell-based"}, "[2]": {"test_system": "MKN-45", "test": "Antiproliferative activity against human MKN-45 cells assessed as reduction in cell viability incubated for 72 hrs by MTT assay", "assay_type": "functional, cell-based", "conditions": "MKN-45, 72 h"}, "[3]": {"test_system": "HCT-116", "test": "Antiproliferative activity against human HCT-116 cells assessed as reduction in cell viability incubated for 72 hrs by MTT assay", "assay_type": "functional, cell-based", "conditions": "HCT-116, 72 h"}, "[4]": {"test_system": "LNCaP", "test": "Antiproliferative activity against human LNCaP cells assessed as reduction in cell viability incubated for 72 hrs by MTT assay", "assay_type": "functional, cell-based"}, "[5]": {"test_system": "U-87 MG", "test": "Antiproliferative activity against human U87 cells assessed as reduction in cell viability incubated for 72 hrs by MTT assay", "assay_type": "functional, cell-based, U-87MG ATCC"}, "[6]": {"test": "Tmax in BALB/c mouse at 50 mg/kg, ip administered as liposome encapsulated form and measured upto 24 hrs by LC-MS/MS analysis", "assay_type": "ADME, organism-based", "conditions": "in vivo"}, "[7]": {"test": "Terminal half life in BALB/c mouse at 12.5 mg/kg, ip administered as liposome encapsulated form and measured upto 24 hrs by LC-MS/MS analysis", "assay_type": "ADME, organism-based", "conditions": "in vivo, read-out: beta t1/2 (converted)"}, "[8]": {"test": "Terminal half life in BALB/c mouse at 25 mg/kg, ip administered as liposome encapsulated form and measured upto 24 hrs by LC-MS/MS analysis", "assay_type": "ADME, organism-based", "conditions": "in vivo, read-out: beta t1/2 (converted)"}, "[9]": {"test": "Terminal half life in BALB/c mouse at 50 mg/kg, ip administered as liposome encapsulated form and measured upto 24 hrs by LC-MS/MS analysis", "assay_type": "ADME, organism-based", "conditions": "in vivo, read-out: beta t1/2 (converted)"}, "[10]": {"test": "Apparent clearance in BALB/c mouse at 12.5 mg/kg, ip administered as liposome encapsulated form and measured upto 24 hrs by LC-MS/MS analysis", "assay_type": "ADME, organism-based", "conditions": "in vivo, read-out: CL(app) (converted)"}, "[11]": {"test": "Apparent clearance in BALB/c mouse at 25 mg/kg, ip administered as liposome encapsulated form and measured upto 24 hrs by LC-MS/MS analysis", "assay_type": "ADME, organism-based", "conditions": "in vivo, read-out: CL(app) (converted)"}, "[12]": {"test": "Apparent clearance in BALB/c mouse at 50 mg/kg, ip administered as liposome encapsulated form and measured upto 24 hrs by LC-MS/MS analysis", "assay_type": "ADME, organism-based", "conditions": "in vivo, read-out: CL(app) (converted)"}, "[13]": {"test": "AUC (0 to t) in BALB/c mouse at 12.5 mg/kg, ip administered as liposome encapsulated form and measured upto 24 hrs by LC-MS/MS analysis", "assay_type": "ADME, organism-based", "conditions": "in vivo"}, "[14]": {"test": "AUC (0 to t) in BALB/c mouse at 25 mg/kg, ip administered as liposome encapsulated form and measured upto 24 hrs by LC-MS/MS analysis", "assay_type": "ADME, organism-based", "conditions": "in vivo"}, "[15]": {"test": "AUC (0 to t) in BALB/c mouse at 50 mg/kg, ip administered as liposome encapsulated form and measured upto 24 hrs by LC-MS/MS analysis", "assay_type": "ADME, organism-based", "conditions": "in vivo"}, "[16]": {"test": "AUC (0 to infinity) in BALB/c mouse at 25 mg/kg, ip administered as liposome encapsulated form and measured upto 24 hrs by LC-MS/MS analysis", "assay_type": "ADME, organism-based", "conditions": "in vivo"}, "[17]": {"test": "AUC (0 to infinity) in BALB/c mouse at 50 mg/kg, ip administered as liposome encapsulated form and measured upto 24 hrs by LC-MS/MS analysis", "assay_type": "ADME, organism-based", "conditions": "in vivo"}, "[18]": {"test": "Toxicity against BALB/c nude mouse xenografted with human U87 cells assessed as change in body weight at 12.5 to 50 mg/kg/day administered as liposome encapsulated form for 15 days", "assay_type": "organism-based, U-87MG ATCC", "conditions": "in vivo, 360 h, dose 12.5-50 mg/kg/day, time 15 day"}, "[19]": {"test": "Toxicity against BALB/c nude mouse xenografted with human U87 cells assessed as mortality at 12.5 to 50 mg/kg/day administered as liposome encapsulated form for 15 days", "assay_type": "organism-based, U-87MG ATCC", "conditions": "in vivo, 360 h, dose 12.5-50 mg/kg/day, time 15 day"}, "[20]": {"test_system": "U-87 MG", "test": "Antitumor activity against human U87 cells xenografted in BALB/c nude mouse assessed as tumor growth inhibition at 50 mg/kg/day administered as liposome encapsulated form for 15 days and measured every 3 days by vernier caliper", "assay_type": "functional, U-87MG ATCC", "conditions": "360 h, time 15 day, read-out: TGI"}, "[21]": {"test_system": "U-87 MG", "test": "Antitumor activity against human U87 cells xenografted in BALB/c nude mouse assessed as tumor growth inhibition at 25 mg/kg/day administered as liposome encapsulated form for 15 days and measured every 3 days by vernier caliper", "assay_type": "functional, U-87MG ATCC", "conditions": "360 h, time 15 day, read-out: TGI"}, "[22]": {"test": "Cmax in BALB/c mouse at 12.5 mg/kg, ip administered as liposome encapsulated form and measured upto 24 hrs by LC-MS/MS analysis", "assay_type": "ADME, organism-based", "conditions": "in vivo"}, "[23]": {"test": "Cmax in BALB/c mouse at 25 mg/kg, ip administered as liposome encapsulated form and measured upto 24 hrs by LC-MS/MS analysis", "assay_type": "ADME, organism-based", "conditions": "in vivo"}, "[24]": {"test": "Cmax in BALB/c mouse at 50 mg/kg, ip administered as liposome encapsulated form and measured upto 24 hrs by LC-MS/MS analysis", "assay_type": "ADME, organism-based", "conditions": "in vivo"}, "[25]": {"test": "Selectivity index, ratio of IC50 for human LNCaP cells to IC50 for human U87 cells", "assay_type": "functional"}, "[26]": {"test": "Selectivity index, ratio of IC50 for human A549 cells to IC50 for human U87 cells", "assay_type": "functional"}},
  "data": [
    {"molecule": "NCCN(Cc1ccc2ccccc2c1)c1nc(C(=O)Nc2ccc(O)cc2)cs1", "values": [
      {"measurement": "IC50", "setting": "[1]", "result": 12.2, "unit": "µM"},
      {"measurement": "IC50", "setting": "[2]", "result": 11, "unit": "µM"},
      {"measurement": "IC50", "setting": "[3]", "result": 9.8, "unit": "µM"},
      {"measurement": "IC50", "setting": "[4]", "result": 8.3, "unit": "µM"},
      {"measurement": "IC50", "setting": "[5]", "result": 5.7, "unit": "µM"},
      {"measurement": "Tmax", "setting": "[6]", "result": 4, "unit": "h"},
      {"measurement": "half-life", "setting": "[7]", "result": 408, "unit": "min"},
      {"measurement": "half-life", "setting": "[8]", "result": 204, "unit": "min"},
      {"measurement": "half-life", "setting": "[9]", "result": 228, "unit": "min"},
      {"measurement": "CL/F", "setting": "[10]", "result": 74.6, "unit": "mL/min/kg"},
      {"measurement": "CL/F", "setting": "[11]", "result": 60.2, "unit": "mL/min/kg"},
      {"measurement": "CL/F", "setting": "[12]", "result": 49.6, "unit": "mL/min/kg"},
      {"measurement": "AUC(0-t) at 24 h", "setting": "[13]", "result": 2550, "unit": "ng·h/mL"},
      {"measurement": "AUC(0-t) at 24 h", "setting": "[14]", "result": 6840, "unit": "ng·h/mL"},
      {"measurement": "AUC(0-t) at 24 h", "setting": "[15]", "result": 16600, "unit": "ng·h/mL"},
      {"measurement": "AUC(0-inf)", "setting": "[16]", "result": 6920, "unit": "ng·h/mL"},
      {"measurement": "AUC(0-inf)", "setting": "[17]", "result": 16800, "unit": "ng·h/mL"},
      {"measurement": "Activity", "setting": "[18]", "result": "Non-Toxic"},
      {"measurement": "Activity", "setting": "[19]", "result": "Non-Toxic"},
      {"measurement": "inhibition in vivo at 50 mg/kg/day", "setting": "[20]", "result": 49.4, "unit": "%"},
      {"measurement": "inhibition in vivo at 25 mg/kg/day", "setting": "[21]", "result": 45.8, "unit": "%"},
      {"measurement": "Cmax", "setting": "[22]", "result": 288, "unit": "ng/mL"},
      {"measurement": "Cmax", "setting": "[23]", "result": 1220, "unit": "ng/mL"},
      {"measurement": "Cmax", "setting": "[24]", "result": 2910, "unit": "ng/mL"},
      {"measurement": "Ratio IC50", "setting": "[25]", "result": 2},
      {"measurement": "Ratio IC50", "setting": "[26]", "result": 2}
    ]}
  ]
}
